Measurements as given in patent US20200038413A1, “METHODS OF TREATING PARKINSON'S DISEASE USING AMINOSTEROL COMPOSITIONS” (Enterin, Inc., priority 2018, published 2020).

Legend:
[1] = system: patients with PD and constipation; assay: Phase 2 trial: safety and adverse event profile; assay type: in vivo, human
Method: Each dose period was staggered, so that subjects 1-2 were administered a single dose of the drug at the lowest dose of 25 mg. Once 24 hours have elapsed, and provided there are no safety concerns, the patient was sent home and brought back on day 4-8 for the next dose. During the days the subjects are home, they completed the daily diaries and e-mailed them to the study coordinators. Subjects 3-10 were dosed after the first 2 subjects have been observed for 72 hours, i.e. on Day 4. Subjects 1-2 were also brought back on Day 4-8 and administered a single dose of 50 mg. Once another 24 hours have elapsed and provided there are no safety concerns, the patients were all sent home and instructed to return on Day 7 for the next dosing level. This single dosing regimen was continued until each subject was administered a single dose of 200 mg or has reached a dose limiting toxicity (DLT). DLT was the dose which induces repeated vomiting, diarrhea, abdominal pain or symptomatic postural hypotension within 24 hours of dosing.
Adverse events were coded using the current version of MedDRA. Severity of AEs were assessed by investigators according to CTCAE (v4.03): Grade 1 is labeled as Mild, Grade 2 as Moderate, and Grade 3 and above as Severe. […] The number (percentage) of subjects who experienced an AE during escalation and fixed dosing periods were summarized by dose level and overall for each stage. The denominator for calculating the percentages were based on the number of subjects ever exposed to each dose and overall.

[2] = system: patients with PD and constipation; assay: Phase 2 trial: circadian rhythm of wrist skin temperature; assay type: in vivo, human; conditions: fixed dose vs baseline, 12 patients
Method: Assessments were made at baseline and at the end of the fixed dose and washout periods. Circadian system status was evaluated by continuously monitoring wrist skin temperature (Thermochron iButton DS1921H; Maxim, Dallas) following published procedures (Sarabia et al. 2008).
Circadian rhythm of skin temperature was evaluable in 12 patients (i.e., those who had recordings that extended from baseline through washout). Circadian system functionality was evaluated by continuously monitoring wrist skin temperature using a temperature sensor (Thermochron iButton DS1921H; Maxim, Dallas, TX) (Sarabia et al. 2008). A nonparametric analysis was performed for each participant to characterize DST as previously described (Sarabia et al. 2008; Ortiz-Tudela et al. 2010).
Briefly, this analysis includes the following parameters: (i) the inter-daily stability (the constancy of 24-hour rhythmic pattern over days, IS); (ii) intra-daily variability (rhythm fragmentation, IV); (iii) average of 10-minute intervals for the 10 hours with the minimum temperature (L10); (iv) average of 10-minute intervals for the 5 hours with the maximum temperature (M5) and the relative amplitude (RA), which was determined by the difference between M5 and L10, divided by the sum of both. Finally, the Circadian Function Index (CFI) was calculated by integrating IS, IV, and RA. Consequently, CFI is a global measure that oscillates between 0 for the absence of circadian rhythmicity and 1 for a robust circadian rhythm (Ortiz-Tudela et al. 2010).

[3] = system: colon segments (propagating contractile clusters); assay: Ex vivo colon motility (PCCs), Swiss Webster, C57BL/6 and CD-1 mice; set-up: species or system mouse; conditions: for increase in colonic PCC velocity / colonic PCC velocity: intraluminal 10-30 μM; for colonic PCC velocity: mean±SEM
Method: Ex vivo colon motility: For the ex vivo colonic motility experiments, the colon was excised and placed within an organ-bath perfusion chamber filled with warmed, oxygenated Krebs buffer or physiological saline (35° C., 95% O2, 5% CO2). The colon was flushed and cannulated at the oral and anal ends to a manifold and syringe to allow inflow of oxygenated Krebs buffer (or physiological saline) or Krebs and squalamine and to maintain intraluminal pressure. The height of the inflow tube at baseline measurements was parallel to the height of the colon in the organ bath (1.1 cm). Mechanical threshold defined an inflow pressure great enough to generate a contraction in under 30 sec (1.8 cm). Recordings in the first portion of the study were measured at a mechanical threshold causing a pressure differential of 2 hPa (cm H2O). Inflow was raised 2-3 hPa above baseline and outflow was raised a minimum of 0.2 hPa above inflow. Motor patterns were recorded using a Microsoft LifeCam 3000 web camera or a Logitech Quickcam Pro camera positioned 7-8 cm above the tissue. Videos were recorded during a 20-minute Krebs control and a 20-minute Krebs +squalamine period in which solutions were added to the inflow syringe.
Spatiotemporal Maps: Video recordings were used to construct spatiotemporal maps (STmaps) using edge detection software. STmaps are presented as heat maps showing the oral to anal direction across the y-axis and time across the x-axis (FIGS. 9A-C). Color corresponds to the changing diameter of the colon during periods of relaxation (green-yellow) and contraction (red) as contractile motor patterns occurred. ENS-dependent PCCs were defined as broad bands directed from the oral to anal ends that spanned more than 50% of the colon length. Parameters of motor patterns including, velocity, amplitude, and frequency were measured using ImageJ and Matlab (Version 12) software.
Statistical Analysis: Effects of squalamine on motility and IPAN excitability in WT and PD model mice were assessed in paired experiments following Krebs control and subsequent squalamine exposure. Unpaired comparisons were performed for experiments comparing PD control and PD model strains. Percent difference was calculated by (treatment-control)/control. Data are presented as mean±SEM. Ex vivo statistical comparisons were performed using paired or unpaired, two-tailed t-tests or 1-way ANOVA using Graphpad Prism software (Version 7.0). In vivo studies were analysed using 1-way and 2-way ANOVA. Statistical significance was determined when p <0.05.

[4] = system: myenteric intrinsic primary afferent neurons (IPANs); assay: Whole-cell patch clamp, divided hemi-dissection preparation, FVB PD mice; assay type: cell-based, mouse; conditions: for decrease in sAHP area under the curve / depolarisation of RMP / increase in number of APs at 2× threshold intensity / number of APs at 2× threshold intensity / AP threshold / sAHP area under the curve / RMP: FVB PD
Method: Whole-cell Patch Clamp: Whole-cell patch clamp was performed on a hemi-dissected myenteric plexus preparation as previously described. […]
Myenteric Primary Afferent Neuron Excitation: Squalamine excites myenteric primary afferent neurons. The effect of squalamine on the excitability of an isolated intestinal segment from the FVB PD mouse was explored using divided hemi-dissection preparations so that neurons are exposed for only half the area of an opened small intestinal segment. In this experiment, the inquiry was whether squalamine influenced the activity of the IPAN through direct interaction or indirectly, by stimulating release of epithelial mediators that influenced IPAN behaviour. Addition of squalamine (30 μM) to Krebs buffer in either the epithelial or the myenteric plexus compartments of the divided hemi-dissection preparation increased IPAN excitability (FIG. 12A-F). […] Addition of squalamine decreased the area under the curve of the sAHP by 77% from 86.8±88.2 to 20.3±25.3 mV.s, and depolarised RMP by 12% from −62±7 to −54±6 mV.

[5] = C57BL/6 mice, vs Krebs control (P=0.27)
[6] = 30 μM added to the myenteric plexus

In the case of `CC(C)[C@@H](CC[C@@H](C)[C@H]1CC[C@H]2[C@@H]3[C@H](O)C[C@H]4C[C@@H](NCCCNCCCCN)CC[C@]4(C)[C@H]3CC[C@]12C)OS(=O)(=O)O` (single isomer, unassigned) [squalamine (ENT-01), squalamine], the “Diarrhea, patients” value ([1]; Stage 1, 4/10) was 40%, the “nausea, patients” value ([1]; Stage 1, 4/10) was 40% and the “Diarrhea, patients” value ([1]; Stage 2, 15/34) was 44%. The “nausea, patients” value ([1]; Stage 2, 18/34) was 52.9%, the “worsening of hemorrhoids, patients” value ([1]; both stages, 1/44) was 2.2% and the “worsening of acid reflux, patients” value ([1]; both stages, 2/44) was 4.5%. The “flatulence, patients” value ([1]; both stages, 3/44) was 6.8%, the “vomiting, patients” value ([1]; both stages, 3/44) was 6.8% and the “dizziness, patients” value ([1]; both stages, 8/44) was 18%. The “abdominal pain, patients” value ([1]; both stages, 11/44) was 32%, the “relative amplitude (RA)” value ([2]; p=0.001) was “increasing” and the “circadian function index (CFI)” value ([2]; p=0.016) was “increasing”. The “rhythm stability (IS)” value ([2]; p=0.026) was “increasing”, the “rhythm fragmentation (IV)” value ([2]; p=0.031) was “reducing” and the “increase in colonic PCC velocity” value ([3]; C57BL/6 mice, vs Krebs control) was 38%. For the same molecule, the “colonic PCC velocity” value ([3]; C57BL/6 mice, Krebs control 1.31±0.10) was 1.80±0.20 mm/s, the “increase in PCC amplitude” value [3, 5] was 1% and the “increase in PCC frequency” value [3, 5] was 51%. The PCC frequency ([3]; C57BL/6 mice, Krebs control 0.007±0.001) was 0.010 ±0.003 Hz, the PCC amplitude ([3]; C57BL/6 mice, Krebs control 0.66±0.06) was 0.70±0.07 cm and the “increase in colonic PCC velocity” value ([3]; CD-1 mice, vs Krebs control) was 81%. The “colonic PCC velocity” value ([3]; CD-1 mice, Krebs control 0.96±0.1) was 1.74±0.1 mm/s, the “increase in PCC frequency” value ([3]; CD-1 mice, vs Krebs control (P=0.06)) was 63% and the “increase in PCC amplitude” value ([3]; CD-1 mice, vs Krebs control (P=0.56)) was 12%. The PCC frequency ([3]; CD-1 mice, Krebs control 0.0099±0.0014) was 0.0162±0.0026 Hz, the PCC amplitude ([3]; CD-1 mice, Krebs control 0.64±0.19) was 0.71±0.19 cm and the “increase in colonic PCC velocity” value ([3]; Swiss Webster mice, 20 min, vs Krebs control) was 45%. For the same molecule, the “colonic PCC velocity” value ([3]; Swiss Webster mice, Krebs control 1.14±0.10) was 1.66±0.10 mm/s, the “increase in PCC frequency” value ([3]; Swiss Webster mice, vs Krebs control) was 35% and the “decrease in PCC amplitude” value ([3]; Swiss Webster mice, vs Krebs control (P=0.65)) was 3%. For the same molecule, the PCC frequency ([3]; Swiss Webster mice, Krebs control 0.009±0.001) was 0.012±0.001 Hz, the PCC amplitude ([3]; Swiss Webster mice, Krebs control 0.62±0.05) was 0.61±0.05 cm and the “decrease in sAHP area under the curve” value ([4]; 30 μM added to the epithelium) was 77%. For the same molecule, the “depolarisation of RMP” value ([4]; 30 μM added to the epithelium) was 12%, the “increase in number of APs at 2× threshold intensity” value ([4]; 30 μM added to the epithelium) was 87% and the “decrease in AP threshold” value ([4]; 30 μM added to the epithelium, FVB PD mouse (N=15)) was 44%. The “number of APs at 2× threshold intensity” value ([4]; 30 μM added to the epithelium, before 1.6±0.6) was 3.1±0.7, the AP threshold ([4]; 30 μM added to the epithelium, before 63.7±50.4) was 35.7±22.3 pA and the “sAHP area under the curve” value ([4]; 30 μM added to the epithelium, before 86.8±88.2) was 20.3±25.3 mV.s. For the same molecule, the RMP ([4]; 30 μM added to the epithelium, before −62±7) was −54±6 mV, the “decrease in sAHP area under the curve” value [4, 6] was 87% and the “depolarisation of RMP” value [4, 6] was 13%. For the same molecule, the “increase in number of APs at 2× threshold intensity” value [4, 6] was 214%, the “decrease in AP threshold” value ([4]; 30 μM added to the myenteric plexus, FVB PD mouse (N=5)) was 37% and the “number of APs at 2× threshold intensity” value ([4]; 30 μM added to the myenteric plexus, before 1.4±0.5) was 4.4±2.8. For the same molecule, the AP threshold ([4]; 30 μM added to the myenteric plexus, before 46.0±31.3) was 29.0±10.1 pA, the RMP ([4]; 30 μM added to the myenteric plexus, before −63±4) was −55±6 mV and the “sAHP area under the curve” value ([4]; 30 μM added to the myenteric plexus, before −71.9±60.1) was -9.6±15.1 mV.s.
